Results on six molecules are retold here after article PMC4232510, “Identification of Functionally Important Residues of the Rat P2X4 Receptor by Alanine Scanning Mutagenesis of the Dorsal Fin and Left Flipper Domains” (PLoS ONE, 2014).

Common to all, as to assay: whole-cell patch clamp, HEK293T cells expressing mutant
Common to all, as to assay type: cell-based
Holding throughout (settings): for relative responsiveness: 100 µM agonist 2 s, relative to ATP (100%)
On the technique in general: In patch-clamp work, channel activity is measured electrically.

For one test, the target named is T1, rP2X4R I205A mutant (Rattus norvegicus, UniProt P51577, I205A).
T1 construct: expressed in transfected cells; host or cells: HEK293T
T1 sequence (P51577 1-388 I205A): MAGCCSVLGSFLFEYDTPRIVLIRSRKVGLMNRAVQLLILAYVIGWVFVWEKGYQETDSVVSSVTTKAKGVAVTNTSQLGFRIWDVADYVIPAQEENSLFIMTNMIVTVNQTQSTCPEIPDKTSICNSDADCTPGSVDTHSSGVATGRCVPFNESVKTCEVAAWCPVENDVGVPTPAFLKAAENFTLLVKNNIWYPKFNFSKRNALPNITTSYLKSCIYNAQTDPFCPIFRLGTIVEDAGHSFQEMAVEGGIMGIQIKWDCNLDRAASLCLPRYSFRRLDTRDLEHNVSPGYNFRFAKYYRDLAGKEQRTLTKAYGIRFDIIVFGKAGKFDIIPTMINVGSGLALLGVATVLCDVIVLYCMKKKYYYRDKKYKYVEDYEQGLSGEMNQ

Another test has as its target T2, rP2X4R N208A mutant (Rattus norvegicus, UniProt P51577, N208A).
T2 construct: expressed in transfected cells; host or cells: HEK293T
T2 sequence (P51577 1-388 N208A): T1 sequence (P51577 1-388 I205A) with A205I, N208A

In a further test the target is T3, rP2X4R L284A mutant (Rattus norvegicus, UniProt P51577, L284A).
T3 construct: expressed in transfected cells; host or cells: HEK293T
T3 sequence (P51577 1-388 L284A): T1 sequence (P51577 1-388 I205A) with A205I, L284A

The mark [1] stands for this setting: 100 µM ATP 60 s, biexponential fit.
The mark [2] stands for this setting: contribution of τdes2, 100 µM ATP 60 s.
Where [3] appears, read: decay after removal of 1 or 3 µM ATP, 3 µM IVM.
Where [4] appears, read: naïve receptors, 2–5 s application.
[5] abbreviates: 3 µM IVM 4-6 min vs IVM-untreated.

Substitutions are numbered along the chain they refer to.

Take “2′(3′-O-(4-Benzoylbenzoyl)adenosine 5′-triphosphate [BzATP]”: the relative responsiveness stood at 4.4±2.6 % on rP2X4R I205A mutant, 33.4±5.4% on rP2X4R N208A mutant and 20.6±0.2 % on rP2X4R L284A mutant.

As to `CSc1nc(N)c2ncn([C@@H]3O[C@H](COP(=O)(O)OP(=O)(O)OP(=O)(O)O)[C@@H](O)[C@H]3O)c2n1` [2-MeS-ATP, 2-(Methylthio)adenosine 5′-triphosphate], the relative responsiveness at rP2X4R I205A mutant worked out at 35.6±1.9 %; on rP2X4R N208A mutant it was 60.0±11.2%; on rP2X4R L284A mutant it was 69.0±3.0%.

In the case of `Nc1ncnc2c1ncn2[C@@H]1O[C@H](COP(=O)(O)OP(=O)(O)OP(=O)(O)O)[C@@H](O)[C@H]1O` [ATP], at rP2X4R I205A mutant, the “EC50 rightward shift compared to WT” value is “approximately 10 fold”. Besides, the τdes1 on rP2X4R I205A mutant (setting [1]) is reported as 1.5 ± 0.7 s; at rP2X4R N208A mutant (setting [1]), 1.1 ± 0.8 s; at rP2X4R L284A mutant (setting [1]), 0.8 ± 0.1 s. Further, the τdes2 on rP2X4R I205A mutant (setting [1]) came to 8.1 ± 1.3 s; on rP2X4R N208A mutant (setting [1]) it was 8.7 ± 4.8 s; at rP2X4R L284A mutant (setting [1]) it was 7.2 ± 1.0 s. Besides, the Imax at rP2X4R I205A mutant (100–1000 µM ATP) is 0.6 ± 0.13 nA; on rP2X4R N208A mutant (100–1000 µM ATP), 1.7 ± 0.3 nA; on rP2X4R L284A mutant (100–1000 µM ATP), 2.4 ± 0.3 nA. Also, the “Imax+IVM” value on rP2X4R I205A mutant (ATP after 3 µM IVM 4-6 min) is given as 4.3 ± 0.4 nA; at rP2X4R N208A mutant (ATP after 3 µM IVM 4-6 min), 3.6 ± 0.3 nA; at rP2X4R L284A mutant (ATP after 3 µM IVM 4-6 min) it was 4.1 ± 0.3 nA. The “A2 /(A1+A2)” value on rP2X4R I205A mutant (setting [2]) worked out at 51 ± 4%; at rP2X4R N208A mutant (setting [2]), 77 ± 4%; on rP2X4R L284A mutant (setting [2]), 60 ± 5%. Also, the entries for the “τoff +IVM” value on rP2X4R I205A mutant (setting [3]), at rP2X4R N208A mutant (setting [3]) and on rP2X4R L284A mutant (setting [3]) were 4.1 ± 0.9 s, 9.1 ± 0.2 s and 28 ± 2.3 s, respectively. In addition, the EC50 at rP2X4R I205A mutant (setting [4]) stood at 26 ± 7.7 µM; at rP2X4R N208A mutant (setting [4]) it was 7.6 ± 2.1 µM; on rP2X4R L284A mutant (setting [4]), 3.9 ± 1.9 µM. For the same molecule, the τdes is listed as 4.9 ± 0.9. s at rP2X4R I205A mutant (weighted, 100 µM ATP 60 s); 6.8 ± 3.5 s on rP2X4R N208A mutant (weighted, 100 µM ATP 60 s); 4.8 ± 0.9 s on rP2X4R L284A mutant (weighted, 100 µM ATP 60 s).

As for `Nc1ncnc2c1ncn2[C@@H]1O[C@H](CO[P@](=O)(O)O[P@](=O)(O)O[P@@](=O)(O)S)[C@@H](O)[C@H]1O` [ATPγS, Adenosine 5′-(γ-thio)triphosphate], the relative responsiveness is listed as 11.3±2.2 % on rP2X4R I205A mutant, 42.2±5.2% at rP2X4R N208A mutant and 32.4±8.2% at rP2X4R L284A mutant.

As for `CC[C@H](C)[C@H]1O[C@]2(CC[C@@H]1C)C[C@@H]1C[C@@H](C/C=C(\C)[C@@H](O[C@H]3C[C@H](OC)[C@@H](O[C@H]4C[C@H](OC)[C@@H](O)[C@H](C)O4)[C@H](C)O3)[C@@H](C)/C=C/C=C3\CO[C@@H]4[C@H](O)C(C)=C[C@@H](C(=O)O1)[C@]34O)O2` [IVM, ivermectin], the “Fold incr. Imax” value turned out to be 5.5 ± 0.6 fold on rP2X4R I205A mutant (setting [5]), 2.3 ± 0.5 fold on rP2X4R N208A mutant (setting [5]) and 1.7 ± 0.1 fold at rP2X4R L284A mutant (setting [5]).

Take `Nc1ncnc2c1ncn2C1OC(COP(=O)(O)CP(=O)(O)OP(=O)(O)O)C(O)C1O` (stereo not drawn) [α,β-meATP, α,β-methyleneadenosine 5′-triphosphate]: the figures for the relative responsiveness at rP2X4R I205A mutant, on rP2X4R N208A mutant and on rP2X4R L284A mutant were 4.6±1.0 %, 28.5±2.3% and 22.2±3.9%, respectively.

In general, EC50 refers to the concentration that produces a half-maximal response. Low readings indicate greater potency, high ones weaker potency.
